For data set [1], the system named is CHIKV-NanoLuc. Put plainly: Antiviral activity assay, CHIKV-NanoLuc at low MOI in BHK-21 cells. Type of data set: cell-based, Chikungunya virus. Particulars: for EC50: Chikungunya virus, BHK-21, 16 h; for viral infection at 100 μM / concentration at which the inhibitory effect appeared: mixtures of four stereoisomers; for concentration at which the inhibitory effect appeared: tested at 1 up to 100 μM.

Data set [2] has as its system BHK-21 cells. The experiment in a line: Cytotoxicity assay. Type of data set: cell-based, hamster. Particulars: for cytotoxic effect over the tested concentrations: concentrations of 1 up to 100 μM, mixtures of four stereoisomers.
A short description of data set [3]: Cytotoxicity assay. The note with it: hamster, BHK-21 cells, CC50, BHK-21 cells, 24 h, MTT. Type of data set: cell-based, hamster.

Entries after “also recorded” stand apart in the source; their conditions may differ.

On to `Cc1cc(C)cc([C@@H]2C[C@H]2C(=O)NC(C(=O)NC2CC2)c2ccc(C)c(C)c2)c1` (stereo partly drawn) [D163], for which, in data set [1] (BHK-21 cells, CHIKV-NanoLuc), the “antiviral activity at the maximum nontoxic concentration” value is listed as “no antiviral activity”. Further, the “concentration at which cytotoxicity appeared” value in data set [2] is reported as “more than 10 μM”.
In general, EC50 refers to the concentration at which the effect is half-maximal. In general, CC50 refers to the concentration giving 50% cytotoxicity. With `Cc1cc(C)cc([C@@H]2C[C@H]2C(=O)NC(C(N)=O)c2ccc(C)c(C(F)(F)F)c2)c1` (stereo partly drawn) [D119], in data set [1], the EC50 was 32 µM. In data set [3], the 50% cytotoxic concentration (CC50) at 24 h was > 100 µM.
On to `Cc1cc(C)cc([C@@H]2C[C@H]2C(=O)NC(C(N)=O)c2ccc(C)c(C)c2)c1` (stereo partly drawn) [D27], for which the 50% cytotoxic concentration (CC50) at 24 h in data set [3] was < 0.1 µM. In addition, in data set [2], the “concentration at which cytotoxicity appeared” value turned out to be 100 nM and the “cytotoxic effect over the tested concentrations” value is reported as “toxic at all concentrations”.
For `Cc1cc(C)cc([C@@H]2C[C@H]2C(=O)NC(C(=O)NC2CCCC2)c2ccc(C)c(C)c2)c1` (stereo partly drawn) [D164], the EC50 in data set [1] stood at 50.5 µM. Also, the CC50 at 24 h in data set [3] was > 100 µM.
Consider `Cc1cc(C)cc([C@@H]2C[C@H]2C(=O)NC(C(=O)NC(C)(C)C)c2ccc(C)c(C)c2)c1` (stereo partly drawn) [D161], for which, in data set [1] (BHK-21 cells), the “viral infection at 100 μM” value is listed as “almost completely inhibited” and the “concentration at which the inhibitory effect appeared” value stood at 10 µM. The compound also had an EC50 in data set [1] of 13.9 µM. The cytotoxic concentration (CC50) at 24 h in data set [3] was > 100 µM. Besides, in data set [2] (100 μM, mixture of four stereoisomers), the “cytotoxicity effect at 100 μM” value is given as “moderate cytotoxicity effect; also recorded: moderate cytotoxic effect”.
Turning to `Cc1cc(F)cc([C@@H]2C[C@H]2C(=O)NC(C(N)=O)c2ccc(C)c(C(F)(F)F)c2)c1` (stereo partly drawn) [D127], it took 29.6 µM to reach a half-maximal effect in data set [1] (EC50). For the same compound, the CC50 at 24 h in data set [3] was > 100 µM. Moreover, the “concentration at which cytotoxicity appeared” value in data set [2] is “more than 100 μM”.
As for `Cc1cc(C)cc([C@@H]2C[C@H]2C(=O)NC(C(=O)NCc2ccccc2)c2ccc(C)c(C)c2)c1` (stereo partly drawn) [D160], in data set [1] (BHK-21 cells), the “viral infection at 100 μM” value is listed as “almost completely inhibited” and the “concentration at which the inhibitory effect appeared” value was 10 µM. In data set [1], this compound returned an EC50 of 10.5 µM. The cytotoxic concentration (CC50) at 24 h in data set [3] is > 100 µM. Further, in data set [2], the “cytotoxic effect over the tested concentrations” value is “no cytotoxic effect”.
Consider `COc1ccc(CNC(=O)C(NC(=O)[C@@H]2C[C@H]2c2cc(C)cc(F)c2)c2ccc(C)c(C(F)(F)F)c2)c(OC)c1` (stereo partly drawn) [D166], for which the “antiviral (anti-CHIKV) activity, in words” value in data set [1] (BHK-21 cells, CHIKV-NanoLuc, low MOI) was “complete loss of the activity”. Moreover, the CC50 at 24 h in data set [3] is > 100 µM.

The values are drawn from publication PMC8153904 (ACS Omega, 2021).
